One experiment concerns E. coli K12 PBP1a/b. The experiment can be described thus: Bocillin FL competition binding assay, PBP1a/1b combined. Also noted: species or system Escherichia coli K12. As to conditions: 15 min pre-incubation, PBP 1a/1b combined. The method in brief: (§1)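 E. coli K12 membrane extracts (100 µg protein) pre-incubated 15 min with compound (0.005–2,480 µg/mL) in pH 7 phosphate/350 mM NaCl, then labelled with Bocillin FL 30 min at 35°C; SDS-PAGE fluorescence (ex 450/em 520 nm), μg/mL reported. PBP1a/1b unresolved, reported combined.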

The target in the next experiment is T1, E. coli PBP3 (Escherichia coli, UniProt P0AD68).
T1 construct: 100 μg's of total membrane protein extracts containing PBPs; endogenous in cells; host or cells: Escherichia coli K12, membrane protein fraction
The experiment can be described thus: Bocillin FL competition binding assay, PBP3. Set-up: species or system Escherichia coli K12. The note with it: 15 min pre-incubation. Put shortly: as §1

The next experiment has as its target T2, E. coli K12 PBP1b (Escherichia coli, UniProt P02919).
T2 construct: endogenous in cells; host or cells: Escherichia coli K12, membrane protein fraction
As to the kind of experiment: Competition binding assay using Bodipy-FL boronic acid probe (Example 125). As to conditions: Bodipy-FL boronic acid probe (Example 125) 30 μM, 10 minutes pre-incubation, 10 minutes reaction. Here is the method: Penicillin binding proteins were isolated from Escherichia coli K12 by growth of Escherichia coli K12 from a single colony in 4 L of Luria-Bertani (LB) broth at 35° C. and 250 rpm to an OD600 nm of 0.5. The cells were harvested by centrifugation at 7,000×g for 10 min. at 4° C. Cells were resuspended and washed in 50 mM potassium phosphate pH 7.5. The cells were re-suspended in sonication buffer [50 mM Tris-HCl pH 7.5, 1 mM MgCl2, 1 mM beta-mercaptoethanol, and 5 μg/mL DNAse I] and sonicated by 4 passes of 30 seconds at 45 W on ice. The sample was clarified by centrifugation at 3,000×g to remove cell debris and unbroken cells and supernatant containing the membrane proteins was retained. The membrane proteins including the PBPs were further purified from soluble constituents by an ultracentrifugation step at 100,000×g for 30 min. at 4° C. The membrane proteins are washed twice with 10 mM sodium phosphate pH 7, resuspended in a volume of 5 mL, quantitated by BCA assay, adjusted to […] and frozen at −80° C. until use.
The adapted Bocillin FL competition binding method described herein incorporates a 15 min. pre-incubation of test compound with isolated PBPs to attempt to balance the difference in mechanism of inhibition between beta-lactams (largely irreversible covalent bond to active site Serine) and the boron-containing PBP inhibitor test compounds (reversible covalent bond to active site Serine). Briefly, 50 μL reactions consisted of 100 μg's of total membrane protein extracts containing PBPs incubated with a dilution series of test compound ranging from 0.005 μg/mL to 2,480 μg/mL in 10 mM sodium phosphate pH7 containing 350 mM NaCl. Thirty minute reactions at 35° C. were initiated by addition of […] Bocillin FL, quenched by addition of SDS-PAGE loading buffer containing sodium dodecyl sulfate (SDS) and heated for 15 minutes at 95° C. to denature proteins in preparation for SDS-polyacrylamide gel electrophoresis. The Bocillin FL labeled PBPs are then separated by SDS-PAGE in Novex NuPage 10% Bis-Tris pre-cast gels (Invitrogen). The SDS-PAGE gel, post-electrophoresis, is then washed in water to remove excess SDS for 10 minutes at room temperature and placed on the scanning bed of a GE Healthcare/Amersham Biosciences Storm 860 fluorescence scanner. The excitation wavelength is in the blue spectrum at 450 nm and the emission at 520 nm is captured by the instrument. Effective PBP inhibitors are detected by a reduction in Bocillin FL labeling of the particular PBP over the dose range of test compound in a dose-responsive manner. High molecular weight PBP 1a/1b are not resolved by these gels, thus we report HMW PBP binding results in μg/mL for PBPs 1a/1b combined as well as for PBP2 and PBP3.
To determine the ability of boronic acid-based test PBP inhibitors to bind Penicillin Binding Proteins (PBPs), a competition binding assay using a Bodipy-FL-labeled boronic acid PBP inhibitor (Example 125) was adapted from the classical method used to assess PBP potency of beta-lactams using Bocillin-FL (fluorescently-labeled penicillin V). The method is identical to that described in Example I for the Bocillin-FL competition binding assay with the following exceptions, the Bodipy-FL boronic acid probe (Example 125) is used at a final concentration of 30 μM, pre-incubation time of test compound with PBP enzymes is 10 minutes and reaction time is set for 10 minutes and reactions are prepared for SDS-PAGE analysis by simply adding SDS-containing loading buffer. Representative results are shown in Table 5, where A represents a potency of >1000 μg/mL, B represents a potency between 64 and 1000 μg/mL inclusive, and C represents a potency of <64 μg/mL. NT=Not Tested.

The test system of a further experiment is S. aureus ATCC 29213. The experiment can be described thus: Broth microdilution MIC assay, S. aureus. The format is cell-based. As to conditions: Staphylococcus aureus, ATCC29213; broth microdilution, 16-20 hours at 37° C.; read-out: S. aureus 29213 MIC. The method in brief: (§2)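 Following CLSI procedures, compounds were serially diluted 2-fold and challenged with bacteria at 5×10^5 CFU/mL in Mueller-Hinton broth supplemented with divalent cations. After 16-20 hours at 37° C, the lowest concentration without visible growth was recorded as the MIC.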
In general terms: Dilution methods test growth across graded concentrations, often in twofold steps.

For experiment [1], the system named is hyper-permeable E. coli 901C. The experiment can be described thus: Broth microdilution MIC assay, hyper-permeable E. coli. Format: cell-based. As to conditions: Escherichia coli, read-out: E. coli 901C MIC. Put shortly: as §2
The next experiment has as its target T3, E. coli PBP2 (Escherichia coli, UniProt P0AD65).
T3 construct: 100 μg's of total membrane protein extracts containing PBPs; endogenous in cells; host or cells: Escherichia coli K12, membrane protein fraction
As to the kind of experiment: Bocillin FL competition binding assay, PBP2. Set-up: species or system Escherichia coli K12. The note with it: 15 min pre-incubation. The method in brief: as §1

T2 sequence (P02919 whole entry): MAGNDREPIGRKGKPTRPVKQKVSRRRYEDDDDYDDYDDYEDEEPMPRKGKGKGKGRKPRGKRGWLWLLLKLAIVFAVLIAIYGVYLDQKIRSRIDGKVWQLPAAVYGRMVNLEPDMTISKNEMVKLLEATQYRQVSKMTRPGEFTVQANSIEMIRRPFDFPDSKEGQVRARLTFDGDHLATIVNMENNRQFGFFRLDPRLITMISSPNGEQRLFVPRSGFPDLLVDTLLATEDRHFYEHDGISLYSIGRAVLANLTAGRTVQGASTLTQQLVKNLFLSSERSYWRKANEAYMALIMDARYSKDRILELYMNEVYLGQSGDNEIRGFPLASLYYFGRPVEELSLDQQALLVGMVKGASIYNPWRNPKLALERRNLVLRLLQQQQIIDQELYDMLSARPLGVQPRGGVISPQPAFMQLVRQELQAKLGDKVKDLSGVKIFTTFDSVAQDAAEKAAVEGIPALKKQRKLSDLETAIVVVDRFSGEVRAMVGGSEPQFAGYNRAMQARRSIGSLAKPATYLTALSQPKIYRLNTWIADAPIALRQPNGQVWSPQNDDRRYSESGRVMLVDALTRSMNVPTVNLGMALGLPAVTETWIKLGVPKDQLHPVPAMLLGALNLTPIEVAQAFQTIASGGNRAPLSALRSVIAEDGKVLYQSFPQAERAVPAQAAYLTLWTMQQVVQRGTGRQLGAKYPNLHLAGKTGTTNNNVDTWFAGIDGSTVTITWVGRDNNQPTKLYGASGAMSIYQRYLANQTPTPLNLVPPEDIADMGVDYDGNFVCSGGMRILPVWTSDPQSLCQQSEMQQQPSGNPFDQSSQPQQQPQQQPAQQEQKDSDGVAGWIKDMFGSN
T1 sequence (P0AD68 1-577): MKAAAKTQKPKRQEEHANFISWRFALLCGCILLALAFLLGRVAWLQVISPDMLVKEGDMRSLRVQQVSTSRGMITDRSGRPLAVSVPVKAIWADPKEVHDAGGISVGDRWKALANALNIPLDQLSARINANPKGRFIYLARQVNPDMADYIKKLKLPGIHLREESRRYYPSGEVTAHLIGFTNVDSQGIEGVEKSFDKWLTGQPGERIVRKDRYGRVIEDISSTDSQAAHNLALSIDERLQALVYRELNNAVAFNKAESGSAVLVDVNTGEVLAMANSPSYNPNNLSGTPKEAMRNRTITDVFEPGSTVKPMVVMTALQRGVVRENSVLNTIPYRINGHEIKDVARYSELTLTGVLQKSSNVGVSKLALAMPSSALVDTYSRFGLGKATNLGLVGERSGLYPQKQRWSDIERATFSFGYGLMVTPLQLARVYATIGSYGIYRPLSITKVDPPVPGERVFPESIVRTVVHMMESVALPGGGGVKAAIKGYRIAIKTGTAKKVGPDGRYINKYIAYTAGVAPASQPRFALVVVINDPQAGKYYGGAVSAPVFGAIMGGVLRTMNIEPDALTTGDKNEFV
T3 sequence (P0AD65 whole entry): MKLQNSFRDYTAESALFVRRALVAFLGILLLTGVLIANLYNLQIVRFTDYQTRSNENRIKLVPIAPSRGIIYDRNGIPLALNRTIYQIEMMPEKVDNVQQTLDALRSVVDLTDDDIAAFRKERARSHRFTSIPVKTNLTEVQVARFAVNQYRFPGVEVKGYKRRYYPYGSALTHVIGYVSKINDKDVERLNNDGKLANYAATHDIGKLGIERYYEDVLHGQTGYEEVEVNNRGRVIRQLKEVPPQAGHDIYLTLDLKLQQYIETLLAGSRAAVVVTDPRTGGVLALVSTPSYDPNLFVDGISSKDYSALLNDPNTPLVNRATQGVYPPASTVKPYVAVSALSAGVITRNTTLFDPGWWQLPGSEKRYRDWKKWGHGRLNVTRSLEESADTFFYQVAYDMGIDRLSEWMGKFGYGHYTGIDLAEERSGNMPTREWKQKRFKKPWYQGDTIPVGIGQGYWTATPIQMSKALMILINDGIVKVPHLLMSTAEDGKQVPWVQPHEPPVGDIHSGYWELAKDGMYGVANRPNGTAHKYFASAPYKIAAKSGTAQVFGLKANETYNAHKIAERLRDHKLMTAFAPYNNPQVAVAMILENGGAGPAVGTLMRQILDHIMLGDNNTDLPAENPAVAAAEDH

In general, MIC refers to the lowest concentration that inhibits growth of the organism. As for `Nc1nc(/C(=N/OCC(=O)NC2CCNCC2)C(=O)N[C@H]2Cc3cccc(C(=O)O)c3OB2O)cs1` [Example 59, (R,Z)-3-(2-(2-aminothiazol-4-yl)-2-((2-oxo-2-(piperidin-4-ylamino)ethoxy)imino)acetamido)-2-hydroxy-3,4-dihydro-2H-benzo[e][1,2]oxaborinine-8-carboxylic Acid], the “E. coli K12 PBP1a/b Potency” value in the experiment with E. coli K12 PBP1a/b was “B (B represents a potency between 64 and 1000 μg/mL inclusive)”. For the same molecule, the “E. coli PBP3 Potency” value at E. coli PBP3 is given as “C (C represents a potency of <64 μg/mL)”. In addition, the “E. coli K12 PBP1b Potency” value at E. coli K12 PBP1b was “B (B represents a potency between 64 and 1000 μg/mL inclusive)”. Moreover, the MIC in the experiment on S. aureus ATCC 29213 is > 128 mg/L; in experiment [1] it was < 64 mg/L. Moreover, the “E. coli PBP2 Potency” value at E. coli PBP2 was “C (C represents a potency of <64 μg/mL)”.

On to `CCO/N=C(\C(=O)N[C@H]1Cc2cccc(C(=O)O)c2OB1O)c1csc(N)n1` [Example 48, (R,Z)-3-(2-(2-aminothiazol-4-yl)-2-(ethoxyimino)acetamido)-2-hydroxy-3,4-dihydro-2H-benzo[e][1,2]oxaborinine-8-carboxylic Acid], for which, in the experiment with E. coli K12 PBP1a/b, the “E. coli K12 PBP1a/b Potency” value is “B (B represents a potency between 64 and 1000 μg/mL inclusive)”. In addition, the “E. coli PBP3 Potency” value on E. coli PBP3 is “B (B represents a potency between 64 and 1000 μg/mL inclusive)”. Further, on E. coli K12 PBP1b, the “E. coli K12 PBP1b Potency” value is “B (B represents a potency between 64 and 1000 μg/mL inclusive)”. The MIC was 64 to 128 mg/L in the experiment on S. aureus ATCC 29213 and < 64 mg/L in experiment [1]. Also, on E. coli PBP2, the “E. coli PBP2 Potency” value was “B (B represents a potency between 64 and 1000 μg/mL inclusive)”.

For the molecule `Nc1nc(/C(=N/OCC(O)CO)C(=O)N[C@H]2Cc3cccc(C(=O)O)c3OB2O)cs1` (stereo partly drawn) [Example 76, (3R)-3-((Z)-2-(2-aminothiazol-4-yl)-2-((2,3-dihydroxypropoxy)imino)acetamido)-2-hydroxy-3,4-dihydro-2H-benzo[e][1,2]oxaborinine-8-carboxylic Acid], the “E. coli K12 PBP1b Potency” value at E. coli K12 PBP1b is “B (B represents a potency between 64 and 1000 μg/mL inclusive)”. For the same molecule, the figures for the MIC (in the experiment on S. aureus ATCC 29213; in experiment [1]) were 64 to 128 mg/L and < 64 mg/L, respectively.

Regarding `CC(C)(O/N=C(\C(=O)N[C@H]1Cc2cc(O)cc(C(=O)O)c2OB1O)c1csc(N)n1)C(N)=O` [Example 82, (R,Z)-3-(2-(((1-amino-2-methyl-1-oxopropan-2-yl)oxy)imino)-2-(2-aminothiazol-4-yl)acetamido)-2,6-dihydroxy-3,4-dihydro-2H-benzo[e][1,2]oxaborinine-8-carboxylic Acid], at E. coli K12 PBP1b, the “E. coli K12 PBP1b Potency” value is “B (B represents a potency between 64 and 1000 μg/mL inclusive)”. In addition, the MIC in the experiment with S. aureus ATCC 29213 was > 128 mg/L; in experiment [1], < 64 mg/L.

As for `N=C(NC1CCNCC1)c1ccc(OCCO/N=C(\C(=O)N[C@H]2Cc3cccc(C(=O)O)c3OB2O)c2csc(N)n2)cc1` [Example 47, (R,Z)-3-(2-(2-aminothiazol-4-yl)-2-((2-(4-(N-(piperidin-4-yl)carbamimidoyl)phenoxy)ethoxy)imino)acetamido)-2-hydroxy-3,4-dihydro-2H-benzo[e][1,2]oxaborinine-8-carboxylic Acid], the “E. coli K12 PBP1a/b Potency” value in the experiment on E. coli K12 PBP1a/b was “B (B represents a potency between 64 and 1000 μg/mL inclusive)”. Further, the “E. coli PBP3 Potency” value on E. coli PBP3 is “B (B represents a potency between 64 and 1000 μg/mL inclusive)”. In addition, on E. coli K12 PBP1b, the “E. coli K12 PBP1b Potency” value was “B (B represents a potency between 64 and 1000 μg/mL inclusive)”. Moreover, the MIC in the experiment with S. aureus ATCC 29213 was 64 to 128 mg/L; in experiment [1] it was < 64 mg/L. The “E. coli PBP2 Potency” value on E. coli PBP2 is “B (B represents a potency between 64 and 1000 μg/mL inclusive)”.

As to `CC(C)(O/N=C(\C(=O)N[C@H]1Cc2cccc(C(=O)O)c2OB1O)c1csc(N)n1)C(=O)O` [Example 68, (R,Z)-3-(2-(2-aminothiazol-4-yl)-2-(((2-carboxypropan-2-yl)oxy)imino)acetamido)-2-hydroxy-3,4-dihydro-2H-benzo[e][1,2]oxaborinine-8-carboxylic Acid], the “E. coli K12 PBP1a/b Potency” value in the experiment with E. coli K12 PBP1a/b is “C (C represents a potency of <64 μg/mL)”. Also, the “E. coli PBP3 Potency” value on E. coli PBP3 is recorded as “C (C represents a potency of <64 μg/mL)”. The “E. coli K12 PBP1b Potency” value at E. coli K12 PBP1b is given as “C (C represents a potency of <64 μg/mL)”. Also, the values for the MIC (in the experiment on S. aureus ATCC 29213; in experiment [1]) were > 128 mg/L and < 64 mg/L, respectively. Besides, the “E. coli PBP2 Potency” value at E. coli PBP2 is given as “C (C represents a potency of <64 μg/mL)”.

For the molecule `CC(C)NC(=N)c1ccc(OCCO/N=C(\C(=O)N[C@H]2Cc3cccc(C(=O)O)c3OB2O)c2csc(N)n2)cc1` [Example 49, (R,Z)-3-(2-(2-aminothiazol-4-yl)-2-((2-(4-(N-isopropylcarbamimidoyl)phenoxy)ethoxy)imino)acetamido)-2-hydroxy-3,4-dihydro-2H-benzo[e][1,2]oxaborinine-8-carboxylic Acid], in the experiment with E. coli K12 PBP1a/b, the “E. coli K12 PBP1a/b Potency” value is “B (B represents a potency between 64 and 1000 μg/mL inclusive)”. Also, the “E. coli PBP3 Potency” value at E. coli PBP3 is “B (B represents a potency between 64 and 1000 μg/mL inclusive)”. Besides, the “E. coli K12 PBP1b Potency” value at E. coli K12 PBP1b is given as “A (A represents a potency of >1000 μg/mL)”. Moreover, the MIC is 64 to 128 mg/L in the experiment on S. aureus ATCC 29213 and < 64 mg/L in experiment [1]. The “E. coli PBP2 Potency” value on E. coli PBP2 is “B (B represents a potency between 64 and 1000 μg/mL inclusive)”.

Take `Nc1nc(/C(=N/OCCF)C(=O)N[C@H]2Cc3cccc(C(=O)O)c3OB2O)cs1` [Example 113, (R,Z)-3-(2-(2-aminothiazol-4-yl)-2-((2-fluoroethoxy)imino)acetamido)-2-hydroxy-3,4-dihydro-2H-benzo[e][1,2]oxaborinine-8-carboxylic Acid]: the “E. coli K12 PBP1b Potency” value on E. coli K12 PBP1b is “B (B represents a potency between 64 and 1000 μg/mL inclusive)”. For the same molecule, the figures for the MIC (with S. aureus ATCC 29213; in experiment [1]) were 64 to 128 mg/L and < 64 mg/L, respectively.

On to `NC(=O)CO/N=C(\C(=O)N[C@H]1Cc2cccc(C(=O)O)c2OB1O)c1csc(N)n1` [Example 61, (R,Z)-3-(2-((2-amino-2-oxoethoxy)imino)-2-(2-aminothiazol-4-yl)acetamido)-2-hydroxy-3,4-dihydro-2H-benzo[e][1,2]oxaborinine-8-carboxylic Acid], for which, in the experiment with E. coli K12 PBP1a/b, the “E. coli K12 PBP1a/b Potency” value is listed as “C (C represents a potency of <64 μg/mL)”. Besides, the “E. coli PBP3 Potency” value at E. coli PBP3 is listed as “C (C represents a potency of <64 μg/mL)”. Also, the “E. coli K12 PBP1b Potency” value at E. coli K12 PBP1b is recorded as “C (C represents a potency of <64 μg/mL)”. In addition, the MIC with S. aureus ATCC 29213 is 64 to 128 mg/L; in experiment [1], < 64 mg/L. The “E. coli PBP2 Potency” value at E. coli PBP2 was “B (B represents a potency between 64 and 1000 μg/mL inclusive)”.

The values are drawn from US11267826B2, “Penicillin-binding protein inhibitors” (priority 2017, dated 2022).
